Measurements taken from publication PMC7721589, “Synthesis and structure-activity relationships for tetrahydroisoquinoline-based inhibitors of Mycobacterium tuberculosis” (Bioorganic & Medicinal Chemistry, 2020).
Converted amounts (≈) assume the structure as drawn.

Tests used:
[1] = system: M.tb strain H37Rv; experiment: MIC against M.tb H37Rv under aerobic (replicating; MABA) conditions; type: cell-based, Mycobacterium tuberculosis; details: MIC90, Table 1
[2] = system: Vero green monkey-derived epithelial kidney cells; experiment: Mammalian cytotoxicity in Vero cells; type: cell-based; details: Table 1
[3] = Stability in CDCl3 solution; type: physicochemical; details: over 1–2 days
Text: Note: The X = OMe compounds 8 and 9 were unstable in CDCl3 solution over 1–2 days.

[4] = system: M.tb strain H37Rv; experiment: MIC against M.tb H37Rv under non-replicating (LORA) conditions; details: MIC90, Table 1
[5] = biological target: M. smegmatis ATP synthase (Mycolicibacterium smegmatis, UniProt A0R205+A0R206); experiment: Inhibition of mycobacterial ATP synthase; type: biochemical; details: M. smegmatis ATP synthase
[6] = biological target: human mitochondrial ATP synthase (Homo sapiens, UniProt P00846+P05496); experiment: Inhibition of human mitochondrial ATP synthase; type: biochemical
[7] = Microsomal clearance in human liver microsomes
[8] = Microsomal clearance in mouse liver microsomes

Chain of human mitochondrial ATP synthase (P05496 62-136): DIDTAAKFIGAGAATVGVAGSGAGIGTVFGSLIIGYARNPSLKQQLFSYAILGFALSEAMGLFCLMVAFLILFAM
Chain of human mitochondrial ATP synthase (P00846 whole entry): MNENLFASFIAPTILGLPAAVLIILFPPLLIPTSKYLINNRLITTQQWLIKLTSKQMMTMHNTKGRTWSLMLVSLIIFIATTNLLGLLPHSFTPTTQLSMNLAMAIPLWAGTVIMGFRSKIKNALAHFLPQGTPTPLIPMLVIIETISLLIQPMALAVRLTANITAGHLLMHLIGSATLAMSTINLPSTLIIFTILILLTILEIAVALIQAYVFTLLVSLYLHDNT
Chain of human mitochondrial ATP synthase (P06576 48-529, further chain): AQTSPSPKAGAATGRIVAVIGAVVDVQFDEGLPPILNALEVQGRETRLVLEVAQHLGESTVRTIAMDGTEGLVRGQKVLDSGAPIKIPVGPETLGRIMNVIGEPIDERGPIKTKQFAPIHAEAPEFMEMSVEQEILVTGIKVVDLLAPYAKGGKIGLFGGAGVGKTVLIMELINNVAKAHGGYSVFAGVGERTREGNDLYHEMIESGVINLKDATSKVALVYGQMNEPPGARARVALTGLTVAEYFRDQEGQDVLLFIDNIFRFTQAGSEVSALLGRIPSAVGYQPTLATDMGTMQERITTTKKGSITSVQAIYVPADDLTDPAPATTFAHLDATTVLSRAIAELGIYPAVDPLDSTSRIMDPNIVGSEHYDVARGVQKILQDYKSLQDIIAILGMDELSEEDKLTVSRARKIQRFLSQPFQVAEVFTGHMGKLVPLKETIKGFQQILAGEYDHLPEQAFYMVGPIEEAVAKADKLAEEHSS
Chain of human mitochondrial ATP synthase (P25705 44-553, further chain): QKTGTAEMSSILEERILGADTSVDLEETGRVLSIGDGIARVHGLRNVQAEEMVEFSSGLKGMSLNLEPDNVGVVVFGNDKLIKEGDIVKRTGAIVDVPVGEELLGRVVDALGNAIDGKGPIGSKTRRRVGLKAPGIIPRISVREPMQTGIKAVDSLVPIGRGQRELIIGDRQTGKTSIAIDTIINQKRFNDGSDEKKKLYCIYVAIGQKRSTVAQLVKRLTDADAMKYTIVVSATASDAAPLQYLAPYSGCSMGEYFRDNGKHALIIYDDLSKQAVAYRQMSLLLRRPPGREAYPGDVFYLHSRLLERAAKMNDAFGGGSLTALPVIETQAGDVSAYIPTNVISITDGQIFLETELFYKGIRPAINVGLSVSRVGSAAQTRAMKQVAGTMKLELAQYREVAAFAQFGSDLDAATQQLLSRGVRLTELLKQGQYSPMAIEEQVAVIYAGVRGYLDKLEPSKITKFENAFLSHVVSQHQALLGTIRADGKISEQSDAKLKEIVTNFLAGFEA
Chain of human mitochondrial ATP synthase (P30049 23-168, further chain): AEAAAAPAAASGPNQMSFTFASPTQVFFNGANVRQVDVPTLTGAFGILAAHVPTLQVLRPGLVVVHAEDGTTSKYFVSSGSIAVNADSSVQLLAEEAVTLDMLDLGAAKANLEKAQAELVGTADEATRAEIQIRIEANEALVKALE
Chain of human mitochondrial ATP synthase (P36542 26-298, further chain): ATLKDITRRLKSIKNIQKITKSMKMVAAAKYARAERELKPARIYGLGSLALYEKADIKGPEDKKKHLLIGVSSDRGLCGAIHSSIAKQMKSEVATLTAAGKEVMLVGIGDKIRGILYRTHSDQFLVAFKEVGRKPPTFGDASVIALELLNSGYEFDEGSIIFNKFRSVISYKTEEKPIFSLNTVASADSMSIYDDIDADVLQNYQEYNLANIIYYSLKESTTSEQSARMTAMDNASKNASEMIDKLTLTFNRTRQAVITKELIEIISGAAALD

Compound | MIC MABA [1] [µg/mL] | IC50 VERO [2] [µg/mL] | stability in CDCl3 solution [3] | MIC LORA [4] [µg/mL] | M. smeg ATPsynth IC50 [5] [µg/mL] | Mamm. ATPsynth IC50 [6] [µg/mL] | HLM Clint [7] | MLM Clint [8]
N-(5-(3,5-bis(trifluoromethyl)phenyl)pyridin-2-yl)-5-methoxy-8-(4-methylpiperazin-1-yl)-3,4-dihydroisoquinoline-2(1H)-carboxamide [Compound 9] | 7.9 | 19 | unstable | 12 |  |  |  | 
N-(5-(4-chloro-2-methylphenyl)pyridin-2-yl)-5-methyl-8-(4-methylpiperazin-1-yl)-3,4-dihydroisoquinoline-2(1H)-carboxamide [Compound 6] | 1.9 | 22 |  | 2.4 | 5.5 | 23 | 22 | 35
COc1ccc(N2CCN(C)CC2)c2c1CCN(C(=O)Nc1ccc(-c3ccc(Cl)cc3C)cn1)C2 [Compound 8, N-(5-(4-Chloro-2-methylphenyl)pyridin-2-yl)-5-methoxy-8-(4-methylpiperazin-1-yl)-3,4-dihydroisoquinoline-2(1H)-carboxamide] | 1.9 (≈ 3.75 µM) | 12 (≈ 23.7 µM) | unstable | 3.6 (≈ 7.11 µM) | 4.2 | 16 | 17 | 42
